According to US7273856B2, “Linear basic compounds having NK-2 antagonist activity and formulations thereof” (Menarini Ricerche S.P.A., priority 2001, dated 2007):
Where a name gives a salt, the structure may show the parent alone.

These compounds were tested against T1, human NK-2 receptor (Homo sapiens, UniProt P21452) (assay: binding test, affinity for the human NK-2 receptor, competition with [125I]NKA on transfected CHO cell membranes). Conditions: CHO cell membranes transfected with NK-2 receptor of human ileum; [125I]NKA 100 pM; 30 min, 20° C.
T1 construct: expressed in transfected cells; host or cells: CHO (Chinese hamster ovary) cells, membranes
T1 sequence (P21452 1-398): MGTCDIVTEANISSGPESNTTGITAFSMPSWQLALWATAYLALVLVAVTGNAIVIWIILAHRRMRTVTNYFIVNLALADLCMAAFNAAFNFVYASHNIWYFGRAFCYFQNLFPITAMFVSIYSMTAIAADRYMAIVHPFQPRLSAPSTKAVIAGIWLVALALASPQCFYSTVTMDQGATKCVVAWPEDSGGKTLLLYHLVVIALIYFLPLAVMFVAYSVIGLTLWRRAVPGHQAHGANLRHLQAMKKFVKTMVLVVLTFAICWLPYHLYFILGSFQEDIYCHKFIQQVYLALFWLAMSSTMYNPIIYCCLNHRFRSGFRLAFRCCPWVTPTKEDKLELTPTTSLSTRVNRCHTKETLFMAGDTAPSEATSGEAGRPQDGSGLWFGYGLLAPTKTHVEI
Method: The evaluation of the antagonist activity on NK-2 receptors has been assessed by binding and functional tests according to that already described in literature in relation to NK-2 antagonists.
The test substances have been tested within a concentration range from 0.01 nM to 10 nM. At the end of the incubation time (30 min, 20° C.) the samples have been filtered and radioactivity has been determined using a gamma-counter.
In the case of O=C(NC1(C(=O)N[C@H](Cc2ccccc2)C(=O)NCC2CCN(CC3COCOC3)CC2)CCCC1)c1cc2cc(Cl)ccc2o1 [Example 91, 5-Chloro-benzofuran-2-carboxylic acid (1-{1(R)-[(1-[1,3]dioxan-5-ylmethyl-piperidin-4-ylmethyl)-carbamoyl]-2-phenyl-ethylcarbamoyl}-cyclopentyl)-amide], the Ki is reported as 1 nM.
Compound O=C(NC1(C(=O)NC(Cc2ccccc2)C(=O)NCC2CCN(CC3CCOCC3)CC2)CCCC1)c1ccc2ccccc2c1 (stereo not drawn) [Example 149, Naphthalene-2-carboxylic acid [1-(2-phenyl-1-{[1R-(tetrahydro-pyran-4-ylmethyl)-piperidin-4ylmethyl]-carbamoyl}-ethylcarbamoyl)-cyclopentyl]-amide] has a pKi of 9.9.
For CN(C)[C@H]1CCCC[C@@H]1NC(=O)[C@@H]1CC[C@H](NC(=O)[C@@H](Cc2ccccc2)NC(=O)C2(NC(=O)c3cc4ccccc4o3)CCCC2)C1 [Example 11, N^γ{N^α[N^α(benzofuran-2-ylcarboxy)-1-aminocyclopentan-1-carboxy]-D-phenylalanyl}-(1R,3S)-3-aminocyclopentane-1-carboxylic-acid-N-((1S,2S)-2-dimethylaminocyclohexyl)amide hydrochloride salt], the Ki was 2 nM.
NC1CCCCC1NC(=O)C1CCC(NC(=O)C(Cc2ccccc2)NC(=O)C2(NC(=O)c3cc4ccccc4s3)CCCCC2)C1 (single isomer, unassigned) [Example 40] showed a Ki of 1.26 nM.
In the case of Cc1ccc(C[C@@H](NC(=O)C2(NC(=O)c3cc4ccccc4s3)CCCC2)C(=O)N[C@H]2CC[C@@H](C(=O)N[C@H]3CCCC[C@@H]3N(C)C)C2)cc1 [Example 9, N^γ{N^α[N^α(benzo[b]thiophen-2-ylcarbonyl)-1-aminocyclopentan-1-carboxy]-D-4-methyl-phenylalanyl}-(1R,3S)-3-aminocyclopentane-1-carboxylic-acid-N-(1S,2S)-2-dimethyl aminocyclohexyl)amide hydrochloride salt], the Ki is reported as 1.58 nM.
O=C(NC1(C(=O)N[C@H](Cc2ccccc2)C(=O)NC2CCN(CCC3CCOCC3)CC2)CCCC1)c1cc2ccccc2s1 [Example 68, Benzo[b]thiophene-2-carboxylic acid [1-(2-phenyl-1(R)-{1-[2-(tetrahydro-pyran-4-yl)-ethyl]-piperidin-4-ylcarbamoyl}-ethylcarbamoyl)-cyclopentyl]-amide TFA salt] showed a Ki of 1.26 nM.
O=C(NC1(C(=O)N[C@H](Cc2ccccc2)C(=O)NCC2CCN(CC3CCOCC3)CC2)CCCC1)c1ccc2cc(I)ccc2c1 [Example 117, 6-Iodo-naphthalene-2-carboxylic acid (1-(2-phenyl-1R-{[1-(tetrahydro-pyran-4-ylmethyl)-piperidin-4-ylmethyl]-carbamoyl}-ethylcarbamoyl)-cyclopentyl]-amide] showed a Ki of 0.0501 nM.
Work on O=C(NC1(C(=O)N[C@H](Cc2ccccc2)C(=O)NCC2CCN(CC3CCCCC3)CC2)CCCC1)c1cc2ccccc2s1 [Example 79, Benzo[b]thiophene-2-carboxylic acid (1-{1(R)-[(1-cyclohexylmethyl-piperidin-4 ylmethyl)-carbamoyl]-2-phenyl-ethylcarbamoyl}-cyclopentyl)-amide] yielded a Ki of 0.0631 nM.
With CCN(CC)c1ccc2cc(C(=O)NC3(C(=O)N[C@H](Cc4ccccc4)C(=O)NCC4CCN(CC5CCOCC5)CC4)CCCC3)oc2c1 [Example 145, 6-Diethylamino-benzofuran-2-carboxylic acid [1-(2-phenyl-1-{[1R-(tetrahydro-pyran-4-ylmethyl)-piperidin-4-ylmethyl)-carbamoyl}-ethylcarbamoyl)-cyclopentyl]-amide] the Ki was 0.501 nM.
Cc1cccc2cc(C(=O)NC3(C(=O)N[C@H](Cc4ccccc4)C(=O)NCC4CCN(CC5CCOCC5)CC4)CCCC3)sc12 [Example 134, 7-Methyl-benzo[b]thiophene-2-carboxylic acid [1-(2-phenyl-1R-{[1-(tetrahydro-pyran-4-ylmethyl)-piperidin-4-ylmethyl]-carbamoyl}-ethylcarbamoyl)-cyclopentyl]-amide] was tested, and the Ki was 0.0631 nM.
In the case of NC1CCCCC1NC(=O)C1CCCC(NC(=O)C(Cc2ccccc2)NC(=O)C2(NC(=O)c3cc4ccccc4s3)CCCCC2)C1 (single isomer, unassigned) [Example 21], the Ki is reported as 0.251 nM.
With Cc1ccc(C=CC(=O)NC2(C(=O)NC(Cc3ccccc3)C(=O)NC3CCC(CN4CCOCC4)C3)CCc3ccccc32)cc1 (mixture of isomers) [Example 7, N^α[N^α(4(methyl)cinnamoyl)-(R,S)1-aminoindane-1-carboxy]-D-phenylalanine amide-N-[(1S,3R)-3-(morpholin-4-ylmethyl)cyclopentyl]] the Ki was 0.126 nM.
O=C(NC1(C(=O)N[C@H](Cc2ccccc2)C(=O)NCC2CCN(CCC3CCOCC3)CC2)CCCC1)c1cc2ccccc2s1 [Example 78, Benzo[b]thiophene-2-carboxylic acid {1-[2-phenyl-1(R)-({1-[2-(tetrahydro-pyran-4-yl)-ethyl]-piperidin-4-ylmethyl}-carbamoyl)-ethylcarbamoyl]-cyclopentyl}-amide] showed a Ki of 1 nM.
With “Benzo[b]thiophene-2-carboxylic acid [1-(2-phenyl-1(R)-{[1-(tetrahydro-pyran-4-yl)-piperidin-4-ylmethyl]-carbamoyl}-ethylcarbamoyl)-cyclopentyl]-amide [Example 73]” the pKi was 9.3.
NC1(C(=O)NCCNC(=O)[C@@H](Cc2ccccc2)NC(=O)C2(NC(=O)c3cc4ccccc4s3)CCCC2)CCCCC1 [Example 95] gave a Ki of 1.58 nM.
With CN1CCN(C(=O)[C@@H]2CC[C@H](NC(=O)[C@@H](Cc3ccccc3)NC(=O)C3(NC(=O)c4cc5ccccc5s4)CCCC3)C2)CC1 [Example 33, N^α[N^α(benzo[b]thiophen-2-ylcarbonyl)-1-aminocyclopentan-1-carboxy]-D-phenylalanine amide-N-[(1S,3R)-3-(4-(methyl)piperazin-1-yl)carbonyl)cyclopentane] the Ki was 0.631 nM.
In the case of NC1CCCCC1NC(=O)C1CCC(NC(=O)C(Cc2ccccc2)NC(=O)C2(NC(=O)c3cc4ccccc4s3)CCCC2)C1 (single isomer, unassigned) [Example 37], the Ki is reported as 0.0126 nM.
O=C(NC1(C(=O)N[C@H](Cc2ccccc2)C(=O)NCCCN2CCOCC2)CCCCC1)c1cc2ccc(Br)cc2s1 [Example 109, 6-Bromo-benzo[b]thiophene-2-carboxylic acid {1-[1R-(3-morpholin-4-yl-propylcarbamoyl)-2-phenyl-ethylcarbamoyl]-cyclohexyl}-amide] showed a Ki of 0.1 nM.
CCN(CC)c1ccc2oc(C(=O)NC3(C(=O)N[C@H](Cc4ccccc4)C(=O)NCC4CCN(CC5CCOCC5)CC4)CCCC3)cc2c1 [Example 147] gave a Ki of 0.631 nM.
O=C(NC1(C(=O)N[C@H](Cc2ccccc2)C(=O)NCC2CCN(CC3COCOC3)CC2)CCCC1)c1ccc2cc(Br)ccc2c1 [Example 89, 6-Bromo-naphthalene-2-carboxylic acid (1-{1(R)-[(1-[1,3]dioxan-5-ylmethyl-piperidin-4-ylmethyl)-carbamoyl]-2-phenyl-ethylcarbamoyl}-cyclopentyl)-amide] was tested, and the Ki was 0.126 nM.
With O=C(NC1(C(=O)N[C@H](Cc2ccccc2)C(=O)NCCCN2CCOCC2)CCCC1)c1cc2ccc(Br)cc2s1 [Example 108, 6-Bromo-benzo[b]thiophene-2-carboxylic acid {1-[1R-(3-morpholin-4-yl-propylcarbamoyl)-2-phenyl-ethylcarbamoyl]-cyclopentyl}-amide] the Ki was 0.0794 nM.
CCCCN(CCCC)CCCNC(=O)[C@@H](Cc1ccccc1)NC(=O)C1(NC(=O)c2cc3ccccc3s2)CCCCC1 [Example 19, N^α[N^α(benzo[b]thiophen-2-yl-carbonyl)-1-aminocyclohexan-1-carboxy]-D-phenylalanine-N-{3-[bis(n-butyl)amino]propyl}amide] was tested, and the pKi was 8.9.
In the case of O=C(NC1(C(=O)N[C@H](Cc2ccccc2)C(=O)NCCN2CCN(CC3CCOCC3)CC2)CCCC1)c1cc2ccccc2s1 [Example 101, Benzo[b]thiophene-2-carboxylic acid [1-(2-phenyl-1(R)-{2-[4-(tetrahydro-pyran-4-ylmethyl)-piperazin-1-yl]-ethylcarbamoyl}-ethylcarbamoyl)-cyclopentyl)-amide TFA salt], the Ki is reported as 1.26 nM.
For Cc1ccc2oc(C(=O)NC3(C(=O)N[C@H](Cc4ccccc4)C(=O)NCC4CCN(CC5CCOCC5)CC4)CCCC3)cc2c1 [Example 126, 5-Methyl-benzofuran-2-carboxylic acid [1-(2-phenyl-1R-([1-(tetrahydro-pyran-4-ylmethyl)-piperidin-4-ylmethyl]-carbamoyl}-ethylcarbamoyl)-cyclopentyl]-amide], the Ki was 0.158 nM.
Compound Cc1ccc(C[C@@H](NC(=O)C2(NC(=O)c3ccc(-c4ccccc4)cc3)CCCC2)C(=O)N[C@H]2CC[C@@H](C(=O)N[C@H]3CCCC[C@@H]3N)C2)cc1 [Example 16, N^γ{N^α[N^α(biphenyl-4-carboxy)-1-aminocyclopentan-1-carboxy]-R-3(4(methyl)phenyl)alanyl}-(1R,3S)-3-aminocyclopentane-1-carboxylic-acid-N-((1S,2S)-2-aminocyclohexyl) amide hydrochloride salt] has a Ki of 0.501 nM.
NC1CCCCC1NC(=O)C1CCCC(NC(=O)[C@H](Cc2ccccc2)NC(=O)C2(NC(=O)c3cc4ccccc4s3)CCCC2)C1 (stereo partly drawn) [Example 26, acid-3-cis-N^γ{N^α[N^α(benzo[b]thiophen-2-ylcarbonyl)-1-aminocyclopentane-1-carboxy]-L-phenylalanil}aminocyclohexane-1-carboxylic-N-(2-cis-aminocyclohexyl) amide] showed a Ki of 0.0501 nM.
